From patent US6410558B1, “Fungicides for the control of take-all disease of plants” (Monsanto Technology LLC, priority 1991, dated 2002) come the findings set out here.

A word on the inhibition: it is the drop in the measured response relative to a control, in per cent.

For the first experiment, the system named is Gaeumannomyces graminis var. tritici (Ggt). Put plainly: In vitro Assay: mycelial growth of Ggt on minimal media agar plates containing test compound. Type of experiment: cell-based. The following applies: 0.1 ppm in minimal media agar; dark, 19-20° C., 4 to 5 days; diameter of mycelial growth. In outline:
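Ggt mycelial diameter read after 4 to 5 days in darkness at 19-20° C, from three 4-mm plugs placed on Czapek Dox minimal agar containing test compound delivered in acetone. Inhibition expressed as percent versus untreated plates, plug size (4 mm) subtracted from both.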
Regarding “2-N,N-dipropyl-6-(trimethylsilyl)benzamide [Example 14]”, the “In vitro (ppm) 0.1, Percent Inhibition” value is given as 7%.

Regarding `CCN(CC)C(=O)c1c(Cl)ccc[c]1[Sn]([CH3])([CH3])[CH3]` [Example 7, 2-Chloro-N,N-diethyl-6-(trimethylstannyl)benzamide], the “In vitro (ppm) 0.1, Percent Inhibition” value is 42%.

The same experiment, now with this note: 1 ppm in minimal media agar; dark, 19-20° C., 4 to 5 days; diameter of mycelial growth.
On to “2-N,N-dipropyl-6-(trimethylsilyl)benzamide [Example 14]”, for which the “In vitro (ppm) 1, Percent Inhibition” value is given as 40%.

For `CCN(CC)C(=O)c1c(Cl)ccc[c]1[Sn]([CH3])([CH3])[CH3]` [Example 7, 2-Chloro-N,N-diethyl-6-(trimethylstannyl)benzamide], the “In vitro (ppm) 1, Percent Inhibition” value was determined as 77%.

Staying with this experiment, now noted: 10 ppm in minimal media agar; dark, 19-20° C., 4 to 5 days; diameter of mycelial growth.
“2-N,N-dipropyl-6-(trimethylsilyl)benzamide [Example 14]”: the “In vitro (ppm) 10, Percent Inhibition” value stood at 79%.

As for `CCN(CC)C(=O)c1c(Cl)ccc[c]1[Sn]([CH3])([CH3])[CH3]` [Example 7, 2-Chloro-N,N-diethyl-6-(trimethylstannyl)benzamide], the “In vitro (ppm) 10, Percent Inhibition” value stood at 100%.

The same experiment, now with this note: Gaeumannomyces graminis; 0.1 ppm in minimal media agar; dark, 19-20° C., 4 to 5 days; diameter of mycelial growth; read-out: In vitro (ppm) 0.1, Percent Inhibition.
For `CCN(CC)C(=O)c1c(C)ccc(F)c1[Si](C)(C)C` [Example 1, N,N-Diethyl-3-fluoro-6-methyl-2-(trimethylsilyl)benzamide], the inhibition at 0.1 ppm was found to be 6%.

Turning to `CCN(CC)C(=O)c1ccccc1[Si](C)(C)C` [Example 2, N,N-Diethyl-2-(trimethylsilyl)benzamide], the inhibition at 0.1 ppm worked out at 14%.

Take `CCN(CC)C(=O)c1c(C)cccc1[Si](C)(C)C` [Example 3, N,N-Diethyl-2-methyl-6-(trimethylsilyl)benzamide]: the inhibition at 0.1 ppm amounted to 19%.

In the case of `CCN(CC)C(=O)c1cccc(F)c1[Si](C)(C)C` [Example 4, N,N-Diethyl-3-fluoro-2-(trimethylsilyl)benzamide], the inhibition at 0.1 ppm was below 0%.

As to `CN(C(=O)c1cccc(F)c1[Si](C)(C)C)C(C)(C)C` [Example 5, N-(1,1-Dimethylethyl)-3-fluoro-N-methyl-2-(trimethylsilyl)benzamide], the inhibition at 0.1 ppm was below 0%.

Take `CCN(CC)C(=O)c1c(C)cccc1C(C)(C)C` [Example 6, 2-(1,1-Dimethylethyl)-N,N-diethyl-6-methylbenzamide]: the inhibition at 0.1 ppm stood at 7%.

In the case of `CCNC(=O)c1c(C)cccc1C(C)(C)C` [Example 8, 2-(1,1-Dimethylethyl)-N-ethyl-6-methylbenzamide], the inhibition at 0.1 ppm was 19%.

Turning to `CCNC(=O)c1cccc(F)c1[Si](C)(C)C` [Example 12, N-Ethyl-3-fluoro-2-(trimethylsilyl)benzamide], the inhibition at 0.1 ppm worked out at 29%.

With `CCCN(CCC)C(=O)c1ccccc1[Si](C)(C)C` [Example 13, N,N-Dipropyl-2-(trimethylsilyl)benzamide], the inhibition at 0.1 ppm is 7%.

`CCNC(=O)c1cnn(C)c1[Si](C)(C)C` [Example 288, N-Ethyl-1-methyl-5-(trimethylsilyl)-1H-pyrazole-4-carboxamide]: the inhibition at 0.1 ppm was below 0%.

The experiment is the same for the next values; noted with them: Gaeumannomyces graminis; 1 ppm in minimal media agar; dark, 19-20° C., 4 to 5 days; diameter of mycelial growth; read-out: In vitro (ppm) 1, Percent Inhibition.
For the molecule `CCN(CC)C(=O)c1c(C)ccc(F)c1[Si](C)(C)C` [Example 1, N,N-Diethyl-3-fluoro-6-methyl-2-(trimethylsilyl)benzamide], the inhibition at 1 ppm was 53%.

On to `CCN(CC)C(=O)c1ccccc1[Si](C)(C)C` [Example 2, N,N-Diethyl-2-(trimethylsilyl)benzamide], for which the inhibition at 1 ppm was found to be 36%.

With `CCN(CC)C(=O)c1c(C)cccc1[Si](C)(C)C` [Example 3, N,N-Diethyl-2-methyl-6-(trimethylsilyl)benzamide], the inhibition at 1 ppm was 58%.

As for `CCN(CC)C(=O)c1cccc(F)c1[Si](C)(C)C` [Example 4, N,N-Diethyl-3-fluoro-2-(trimethylsilyl)benzamide], the inhibition at 1 ppm is below 0%.

For the molecule `CN(C(=O)c1cccc(F)c1[Si](C)(C)C)C(C)(C)C` [Example 5, N-(1,1-Dimethylethyl)-3-fluoro-N-methyl-2-(trimethylsilyl)benzamide], the inhibition at 1 ppm is below 0%.

As to `CCN(CC)C(=O)c1c(C)cccc1C(C)(C)C` [Example 6, 2-(1,1-Dimethylethyl)-N,N-diethyl-6-methylbenzamide], the inhibition at 1 ppm stood at 2%.

Take `CCNC(=O)c1c(C)cccc1C(C)(C)C` [Example 8, 2-(1,1-Dimethylethyl)-N-ethyl-6-methylbenzamide]: the inhibition at 1 ppm was found to be 97%.

In the case of `CCNC(=O)c1cccc(F)c1[Si](C)(C)C` [Example 12, N-Ethyl-3-fluoro-2-(trimethylsilyl)benzamide], the inhibition at 1 ppm was 83%.

As to `CCCN(CCC)C(=O)c1ccccc1[Si](C)(C)C` [Example 13, N,N-Dipropyl-2-(trimethylsilyl)benzamide], the inhibition at 1 ppm is 17%.

Take `CCNC(=O)c1cnn(C)c1[Si](C)(C)C` [Example 288, N-Ethyl-1-methyl-5-(trimethylsilyl)-1H-pyrazole-4-carboxamide]: the inhibition at 1 ppm is below 0%.

Still in this experiment, the particulars now being: Gaeumannomyces graminis; 10 ppm in minimal media agar; dark, 19-20° C., 4 to 5 days; diameter of mycelial growth; read-out: In vitro (ppm) 10, Percent Inhibition.
`CCN(CC)C(=O)c1c(C)ccc(F)c1[Si](C)(C)C` [Example 1, N,N-Diethyl-3-fluoro-6-methyl-2-(trimethylsilyl)benzamide]: the inhibition at 10 ppm was determined as 74%.

With `CCN(CC)C(=O)c1ccccc1[Si](C)(C)C` [Example 2, N,N-Diethyl-2-(trimethylsilyl)benzamide], the inhibition at 10 ppm was found to be 72%.

As for `CCN(CC)C(=O)c1c(C)cccc1[Si](C)(C)C` [Example 3, N,N-Diethyl-2-methyl-6-(trimethylsilyl)benzamide], the inhibition at 10 ppm came to 75%.

`CCN(CC)C(=O)c1cccc(F)c1[Si](C)(C)C` [Example 4, N,N-Diethyl-3-fluoro-2-(trimethylsilyl)benzamide]: the inhibition at 10 ppm turned out to be 57%.

In the case of `CN(C(=O)c1cccc(F)c1[Si](C)(C)C)C(C)(C)C` [Example 5, N-(1,1-Dimethylethyl)-3-fluoro-N-methyl-2-(trimethylsilyl)benzamide], the inhibition at 10 ppm was 29%.

Regarding `CCN(CC)C(=O)c1c(C)cccc1C(C)(C)C` [Example 6, 2-(1,1-Dimethylethyl)-N,N-diethyl-6-methylbenzamide], the inhibition at 10 ppm is 47%.

`CCNC(=O)c1c(C)cccc1C(C)(C)C` [Example 8, 2-(1,1-Dimethylethyl)-N-ethyl-6-methylbenzamide]: the inhibition at 10 ppm is 100%.

On to `CCNC(=O)c1cccc(F)c1[Si](C)(C)C` [Example 12, N-Ethyl-3-fluoro-2-(trimethylsilyl)benzamide], for which the inhibition at 10 ppm was 100%.

Take `CCCN(CCC)C(=O)c1ccccc1[Si](C)(C)C` [Example 13, N,N-Dipropyl-2-(trimethylsilyl)benzamide]: the inhibition at 10 ppm was 64%.

For `CCNC(=O)c1cnn(C)c1[Si](C)(C)C` [Example 288, N-Ethyl-1-methyl-5-(trimethylsilyl)-1H-pyrazole-4-carboxamide], the inhibition at 10 ppm was found to be 53%.

For a further experiment, the system named is Ggt. As to the kind of experiment: In vivo Assay: control of Ggt on wheat grown in pots of Ggt-infested soil, root disease rating. Details: species or system Gaeumannomyces graminis var. tritici. The following applies: 0.5 mg active ingredient per pot; 'Bergen' or 'Anza' wheat in Ggt-infested soil; after four weeks; vs untreated control. On the procedure:
Compounds are tested for control of Ggt on ‘Bergen’ or ‘Anza’ varieties of wheat grown in 3-inch square pots containing soil infested with Ggt. The infestation is accomplished by mixing the soil with an inoculum prepared by growing Ggt on ¼ strength potato dextrose agar (4.875 g potato dextrose agar, 5.0 g Bacto agar, 500 mL distilled, deionized water) in plates and using plugs from the plates to infest sterile oats (400 cc whole oats, 350 mL deionized water, autoclaved). After a one-month incubation period at room temperature, the oats are dried and mixed with the soil at 4% v/v. Four wheat seeds are placed on top of the soil in each pot. The test compounds are prepared as an 1:9 acetone/water v/v solution containing 0.18% Tween® 20 to provide a treatment rate of 0.5 mg active ingredient per pot, treated with 3 mL test solution per pot. Five pots are used for each treatment level and the controls, which are untreated, inoculated and non-inoculated pots. After one hour drying time, the seeds are covered with more of the appropriate soil and a layer of vermiculite. The pots are placed in a growth chamber and watered each day. After four weeks, each pot is evaluated for evidence of disease by examination of the seminal roots of each plant under a dissecting microscope. A 0 to 5 rating scale having the following meanings is used:
0=no runner hyphae or lesions present
1=runner hyphae and a few small lesions present on <10% of root system
2=runner hyphae and small lesions present on 10-25% of root system
3=runner hyphae and lesions present on 25-50% of root system
4=runner hyphae and many, large, coalescing lesions on >50% of root system
5=root system and culm completely inundated with lesions and runner hyphae
From each set of five replicates a high and low score is eliminated and a replicate mean is calculated by the average of the remaining three scores. This mean score is then compared to the untreated control score and a percent disease control is calculated.
With “2-N,N-dipropyl-6-(trimethylsilyl)benzamide [Example 14]”, the “In vivo, percent disease control” value was determined as 92%.

Regarding `CCN(CC)C(=O)c1c(Cl)ccc[c]1[Sn]([CH3])([CH3])[CH3]` [Example 7, 2-Chloro-N,N-diethyl-6-(trimethylstannyl)benzamide], the “In vivo, percent disease control” value was determined as 93%.

Still in this experiment, the particulars now being: Gaeumannomyces graminis, 672 h; 0.5 mg active ingredient per pot; 'Bergen' or 'Anza' wheat in Ggt-infested soil; after four weeks; vs untreated control; read-out: In vivo, percent disease control.
With `CCN(CC)C(=O)c1c(C)ccc(F)c1[Si](C)(C)C` [Example 1, N,N-Diethyl-3-fluoro-6-methyl-2-(trimethylsilyl)benzamide], the pest or weed control at 0.5 mg/pot is 91%.

In the case of `CCN(CC)C(=O)c1ccccc1[Si](C)(C)C` [Example 2, N,N-Diethyl-2-(trimethylsilyl)benzamide], the pest or weed control at 0.5 mg/pot was found to be 74%.

On to `CCN(CC)C(=O)c1c(C)cccc1[Si](C)(C)C` [Example 3, N,N-Diethyl-2-methyl-6-(trimethylsilyl)benzamide], for which the pest or weed control at 0.5 mg/pot was 100%.

As for `CCN(CC)C(=O)c1cccc(F)c1[Si](C)(C)C` [Example 4, N,N-Diethyl-3-fluoro-2-(trimethylsilyl)benzamide], the pest or weed control at 0.5 mg/pot was 54%.

For `CN(C(=O)c1cccc(F)c1[Si](C)(C)C)C(C)(C)C` [Example 5, N-(1,1-Dimethylethyl)-3-fluoro-N-methyl-2-(trimethylsilyl)benzamide], the pest or weed control at 0.5 mg/pot is 24%.

As for `CCN(CC)C(=O)c1c(C)cccc1C(C)(C)C` [Example 6, 2-(1,1-Dimethylethyl)-N,N-diethyl-6-methylbenzamide], the pest or weed control at 0.5 mg/pot was found to be 37%.

For `CCNC(=O)c1c(C)cccc1C(C)(C)C` [Example 8, 2-(1,1-Dimethylethyl)-N-ethyl-6-methylbenzamide], the pest or weed control at 0.5 mg/pot stood at 85%.

As for `CCNC(=O)c1cccc(F)c1[Si](C)(C)C` [Example 12, N-Ethyl-3-fluoro-2-(trimethylsilyl)benzamide], the pest or weed control at 0.5 mg/pot stood at 95%.

For the molecule `CCCN(CCC)C(=O)c1ccccc1[Si](C)(C)C` [Example 13, N,N-Dipropyl-2-(trimethylsilyl)benzamide], the pest or weed control at 0.5 mg/pot was found to be 13%.
